In patent US12427212B2, “Nectin-4 binding miniproteins, conjugates and uses thereof” (Aktis Oncology, Inc., priority 2023, dated 2025):
Bridges are numbered along the chain shown (N, C = ends). Primed or numbered codes have the meaning given here. [ ]: non-standard residue; d: D form. The star is where a group is joined. DOTA = O=C(O)CN1CCN(CC(=O)O)CCN(CC(=O)*)CCN(CC(=O)O)CC1; Biotin = O=C1N[C@H]2[C@H](CS[C@H]2CCCCC(=O)*)N1; Lys(Me3) = C[N+](C)(C)CCCC[C@H](N)C(=O)O; Lys(Me2) = CN(C)CCCC[C@H](N)C(=O)O; Cit = NC(=O)NCCC[C@H](N)C(=O)O; PEG4 = NCCOCCOCCOCCOCCC(=O)O; PEG4″ = 4(ethylene glycol); PEG4′ = not defined here

Key:
in vivo = conditions: Sprague Dawley, rat, iv
Description: To begin, double jugular vein-cannulated Sprague Dawley rats were dosed with bolus intravenous injections of miniproteins (0.03-0.3 mg/kg) and FITC-sinistrin. Nine blood collection timepoints were taken from 0-2 h, processed to plasma with K2 EDTA, and were frozen for subsequent bioanalysis. Plasma miniprotein concentrations were measured by LC-MS/MS. To control for inter-animal renal clearance differences, and to compare with glomerular filtration rate (GFR), the miniprotein was co-formulated with a molecular marker of GFR, FITC-sinistrin (FS) (Pill et al., 2005). Plasma FITC-sinistrin was measured fluorometrically. All unknown sample measurements were interpolated against known authentic standards spiked into normal rat plasma to calculate concentration. Finally, non-compartmental analysis was performed to estimate plasma pharmacokinetic parameters.

[1] = test system: Opossum kidney proximal tubule cells; test: Proximal tubule epithelial cell uptake assay; assay type: cell-based; conditions: for % Uptake of C306: Table 10B, modified lysine miniproteins; for % Uptake of C306 / % Uptake of C306 (Control): relative to control miniprotein C306; for % Uptake of C306 (Control): Table 10A, mean percent uptake in opossum kidney cells
Description: FIG. 8 is a bar graph of the percent uptake of exemplary miniproteins tested at 20 µM in a proximal tubule epithelial cell assay vs 20 μM control peptide set at 100%. […]
Opossum kidney proximal tubule cells were plated in the upper chamber of 24-well transwell plates containing 600 μL of growth media in the lower chamber and were incubated overnight at 37° C., in 5% CO2. The following day, the media was changed, and cells were incubated an additional 24 h with orbital shaking at 146 RPM. Next, cells were washed and treated in duplicates with biotinylated exemplary miniproteins pre-complexed with streptavidin-AF647 for 1 h at 37° C., and 5% C02 with continuous orbital shaking. Following incubation, cells were washed three times with 1×PBS and lysed with RIPA buffer containing protease and phosphatase inhibitor cocktail and a universal nuclease for 30 minutes. Uptake was measured on 100 μL of lysates using a fluorimeter. Mean % uptake values of control miniprotein C306 in the presence of exemplary miniproteins are provided in TABLE 10A and summarized in FIG. 8.
Uptake of engineered Nectin-4 miniproteins with further modified lysine residues (C298-C304, as described in Example 4B) was evaluated. Percent uptake of these exemplary Nectin-4-targeting miniproteins and C251 were determined against a control miniprotein, C306, using opossum kidney proximal tubule cells as described in Example 18A. Percent uptake of C298, which has an unmodified lysine (K) at amino acid position 26 (along the length of the miniprotein sequence. SEQ ID NO: 162), was 37% in the presence of […]. All other miniproteins having a modified lysine (modified with one or more small alkyl groups of monomethyl, dimethyl, trimethyl, or isopropyl group) had (i) kidney uptake similar to that of C251 and (ii) reduced uptake as compared to C298, which has an unmodified lysine at position 26.

[2] = opossum kidney proximal tubule cells

Compound | half-life (in vivo) [min] | % Uptake of C306 [1, 2] [%] | % Uptake of C306 (Control) ([1]; 1 h at 37° C.) [%] | also measured
CC[C@H](C)[C@@H]1NC(=O)[C@H](Cc2ccc(O)cc2)NC(=O)[C@H](CCC(=O)O)NC(=O)[C@@H]2CSSC[C@@H](C(=O)N[C@@H](CO)C(=O)O)NC(=O)CNC(=O)[C@H](CC(C)C)NC(=O)[C@H](CC(N)=O)NC(=O)[C@H](CC(=O)O)NC(=O)[C@H](CC(C)C)NC(=O)[C@H]([C@@H](C)CC)NC(=O)[C@H](CCC(=O)O)NC(=O)[C@H](CCC(=O)O)NC(=O)[C@H]([C@@H](C)CC)NC(=O)[C@H](CSSC[C@H](NC(=O)CCOCCOCCOCCOCCNC(=O)CN3CCN(CC(=O)O)CCN(CC(=O)O)CCN(CC(=O)O)CC3)C(=O)N[C@@H](CC(=O)O)C(=O)N[C@@H](Cc3ccc(O)cc3)C(=O)N[C@@H](CC(=O)O)C(=O)N[C@@H](CCC(=O)O)C(=O)N[C@@H](CCC(N)=O)C(=O)N[C@@H](Cc3ccccc3)C(=O)N[C@@H](Cc3ccccc3)C(=O)N[C@@H]([C@@H](C)O)C(=O)N[C@@H](C)C(=O)N[C@@H](CC(C)C)C(=O)N[C@@H](CCCCN)C(=O)N[C@@H](CCCNC(=N)N)C(=O)N[C@@H](CC(C)C)C(=O)N[C@@H](CCCNC(=N)N)C(=O)NCC(=O)NCC(=O)N[C@@H](CC(=O)O)C(=O)N[C@@H]([C@@H](C)CC)C(=O)N2)NC(=O)[C@H](CC(C)C)NC(=O)CNC(=O)[C@@H]2CCCN2C(=O)[C@H](CC(C)C)NC(=O)[C@H](Cc2ccc(O)cc2)NC(=O)[C@H](CCC(N)=O)NC(=O)[C@H](Cc2ccccc2)NC(=O)[C@H](CO)NC(=O)[C@H](C)NC(=O)[C@H](CCC(N)=O)NC1=O [Compound C240] | 29.7 |  |  | 
CC[C@H](C)[C@@H]1NC(=O)[C@H](Cc2ccc(O)cc2)NC(=O)[C@H](CCC(N)=O)NC(=O)[C@@H]2CSSC[C@@H](C(=O)N[C@@H](CO)C(=O)O)NC(=O)CNC(=O)[C@H](CC(C)C)NC(=O)[C@H](CC(N)=O)NC(=O)[C@H](CC(=O)O)NC(=O)[C@H](CC(C)C)NC(=O)[C@H]([C@@H](C)CC)NC(=O)[C@H](CCC(=O)O)NC(=O)[C@H](CCC(=O)O)NC(=O)[C@H]([C@@H](C)CC)NC(=O)[C@H](CSSC[C@H](NC(=O)CCOCCOCCOCCOCCNC(=O)CCCC[C@@H]3SC[C@@H]4NC(=O)N[C@@H]43)C(=O)N[C@@H](CCC(=O)O)C(=O)N[C@@H](Cc3ccc(O)cc3)C(=O)N[C@@H](CC(=O)O)C(=O)N[C@@H](CCC(=O)O)C(=O)N[C@@H](CCC(=O)O)C(=O)N[C@@H](Cc3ccccc3)C(=O)N[C@@H](Cc3ccccc3)C(=O)N[C@@H]([C@@H](C)O)C(=O)N[C@@H](C)C(=O)N[C@@H](CC(C)C)C(=O)N[C@@H](C)C(=O)N[C@@H](CCCNC(=N)N)C(=O)N[C@@H](CC(C)C)C(=O)N[C@@H](CCCNC(=N)N)C(=O)NCC(=O)NCC(=O)N[C@@H](CC(=O)O)C(=O)N[C@@H]([C@@H](C)CC)C(=O)N2)NC(=O)[C@H](CC(C)C)NC(=O)[C@H](C)NC(=O)[C@@H]2CCCN2C(=O)[C@H](CC(C)C)NC(=O)[C@H](Cc2ccc(O)cc2)NC(=O)[C@H](CCC(N)=O)NC(=O)[C@H](Cc2ccccc2)NC(=O)[C@H](CCCCN)NC(=O)[C@H](C)NC(=O)[C@H](CCC(N)=O)NC1=O [Compound C298] |  | 37 |  | Percent uptake of control miniprotein C306 in the presence of exemplary miniprotein ([1]; opossum kidney proximal tubule cells, 1 h at 37° C.): 37%
CC[C@H](C)[C@@H]1NC(=O)[C@H](Cc2ccc(O)cc2)NC(=O)[C@H](CCC(=O)O)NC(=O)[C@@H]2CSSC[C@@H](C(=O)N[C@@H](CO)C(=O)O)NC(=O)CNC(=O)[C@H](CC(C)C)NC(=O)[C@H](CC(N)=O)NC(=O)[C@H](CC(=O)O)NC(=O)[C@H](CC(C)C)NC(=O)[C@H]([C@@H](C)CC)NC(=O)[C@H](CCC(=O)O)NC(=O)[C@H](CCC(=O)O)NC(=O)[C@H]([C@@H](C)CC)NC(=O)[C@H](CSSC[C@H](NC(=O)CCOCCOCCOCCOCCNC(=O)CN3CCN(CC(=O)O)CCN(CC(=O)O)CCN(CC(=O)O)CC3)C(=O)N[C@@H](CC(=O)O)C(=O)N[C@@H](Cc3ccc(O)cc3)C(=O)N[C@@H](CC(=O)O)C(=O)N[C@@H](CCC(=O)O)C(=O)N[C@@H](CCC(N)=O)C(=O)N[C@@H](Cc3ccccc3)C(=O)N[C@@H](Cc3ccccc3)C(=O)N[C@@H]([C@@H](C)O)C(=O)N[C@@H](C)C(=O)N[C@@H](CC(C)C)C(=O)N[C@@H](C)C(=O)N[C@@H](CCCNC(=N)N)C(=O)N[C@@H](CC(C)C)C(=O)N[C@@H](CCCNC(=N)N)C(=O)NCC(=O)N[C@@H](C)C(=O)N[C@@H](CC(=O)O)C(=O)N[C@@H]([C@@H](C)CC)C(=O)N2)NC(=O)[C@H](CCC(=O)O)NC(=O)CNC(=O)[C@@H]2CCCN2C(=O)[C@H](CC(C)C)NC(=O)[C@H](Cc2ccc(O)cc2)NC(=O)[C@H](CCC(N)=O)NC(=O)[C@H](Cc2ccccc2)NC(=O)[C@H](CO)NC(=O)[C@H](C)NC(=O)[C@H](CCC(N)=O)NC1=O [Compound C246] | 38 |  |  | 
{DOTA-PEG4}-CEYDEQFFTALARLRGGDICEYIQAKFQYLPGLCIEEILDNLGCS-OH (disulfide 1-34, 20-44) [Compound C219] | 25.4 |  |  | 
C306: control miniprotein of the proximal tubule cell uptake assay ({Biotin-PEG4′}-CEYDEEFFTALKRLRGGDICYYIKKKFKKVPKLCIEEILDKLGC-NH2; disulfide 1-34, 20-44) [Compound C306, reference compound] |  |  | 100 | 
C262: exemplary Nectin-4 miniprotein compound ({Biotin-PEG4″}-CEYDEQFFTALARLRGADICEYIQA[Lys(Me3)]FQYLPGLCIEEILDNLGCS-OH; disulfide 1-34, 20-44) [Compound C262] |  |  | 1.27 | 
C281 ({Biotin-PEG4′}-CEYDEQFFTALARLRGGDICEYIQA[Cit]FQYLPGLCIEEILDNLGCS-OH; disulfide 1-34, 20-44) [Compound C281] |  |  | 0.006 | 
{Biotin-PEG4}-CEYDEEFFTAL[Lys(Me2)]RLRGGDICQYIQA[Lys(Me3)]FQYLPALCIEEILDNLGCS-OH (disulfide 1-34, 20-44) [Compound C303] |  | 3 |  | 
CC[C@H](C)[C@@H]1NC(=O)[C@H](Cc2ccc(O)cc2)NC(=O)[C@H](CCC(N)=O)NC(=O)[C@@H]2CSSC[C@@H](C(=O)N[C@@H](CO)C(=O)O)NC(=O)CNC(=O)[C@H](CC(C)C)NC(=O)[C@H](CC(N)=O)NC(=O)[C@H](CC(=O)O)NC(=O)[C@H](CC(C)C)NC(=O)[C@H]([C@@H](C)CC)NC(=O)[C@H](CCC(=O)O)NC(=O)[C@H](CCC(=O)O)NC(=O)[C@H]([C@@H](C)CC)NC(=O)[C@H](CSSC[C@H](NC(=O)CCOCCOCCOCCOCCNC(=O)CCCC[C@@H]3SC[C@@H]4NC(=O)N[C@@H]43)C(=O)N[C@@H](CCC(=O)O)C(=O)N[C@@H](Cc3ccc(O)cc3)C(=O)N[C@@H](CC(=O)O)C(=O)N[C@@H](CCC(=O)O)C(=O)N[C@@H](CCC(=O)O)C(=O)N[C@@H](Cc3ccccc3)C(=O)N[C@@H](Cc3ccccc3)C(=O)N[C@@H]([C@@H](C)O)C(=O)N[C@@H](C)C(=O)N[C@@H](CC(C)C)C(=O)N[C@@H](C)C(=O)N[C@@H](CCCNC(=N)N)C(=O)N[C@@H](CC(C)C)C(=O)N[C@@H](CCCNC(=N)N)C(=O)NCC(=O)NCC(=O)N[C@@H](CC(=O)O)C(=O)N[C@@H]([C@@H](C)CC)C(=O)N2)NC(=O)[C@H](CC(C)C)NC(=O)[C@H](C)NC(=O)[C@@H]2CCCN2C(=O)[C@H](CC(C)C)NC(=O)[C@H](Cc2ccc(O)cc2)NC(=O)[C@H](CCC(N)=O)NC(=O)[C@H](Cc2ccccc2)NC(=O)[C@H](CCCCN(C)C)NC(=O)[C@H](C)NC(=O)[C@H](CCC(N)=O)NC1=O [Compound C300] |  | 3 |  | 
